What was measured:
c-Met [1] = molecular target: T1, c-Met (Homo sapiens, UniProt P08581); experiment: cell-free Z-LYTE Tyr6 peptide kinase assay, dose-response; assay type: biochemical
c-Met [2] = molecular target: T1, c-Met; experiment: cell-free Z-LYTE Tyr6 peptide kinase assay, positive control measured by the authors; assay type: biochemical

T1 sequence (P08581 25-307): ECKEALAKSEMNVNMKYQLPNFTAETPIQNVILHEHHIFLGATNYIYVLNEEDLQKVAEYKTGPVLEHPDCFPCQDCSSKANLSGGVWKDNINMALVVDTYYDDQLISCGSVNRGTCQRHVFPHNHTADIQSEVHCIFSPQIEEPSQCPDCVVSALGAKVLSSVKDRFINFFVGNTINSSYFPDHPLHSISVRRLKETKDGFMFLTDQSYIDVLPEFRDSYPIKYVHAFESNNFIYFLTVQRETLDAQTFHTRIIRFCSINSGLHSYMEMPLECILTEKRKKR
T1 sequence (P08581 308-1390): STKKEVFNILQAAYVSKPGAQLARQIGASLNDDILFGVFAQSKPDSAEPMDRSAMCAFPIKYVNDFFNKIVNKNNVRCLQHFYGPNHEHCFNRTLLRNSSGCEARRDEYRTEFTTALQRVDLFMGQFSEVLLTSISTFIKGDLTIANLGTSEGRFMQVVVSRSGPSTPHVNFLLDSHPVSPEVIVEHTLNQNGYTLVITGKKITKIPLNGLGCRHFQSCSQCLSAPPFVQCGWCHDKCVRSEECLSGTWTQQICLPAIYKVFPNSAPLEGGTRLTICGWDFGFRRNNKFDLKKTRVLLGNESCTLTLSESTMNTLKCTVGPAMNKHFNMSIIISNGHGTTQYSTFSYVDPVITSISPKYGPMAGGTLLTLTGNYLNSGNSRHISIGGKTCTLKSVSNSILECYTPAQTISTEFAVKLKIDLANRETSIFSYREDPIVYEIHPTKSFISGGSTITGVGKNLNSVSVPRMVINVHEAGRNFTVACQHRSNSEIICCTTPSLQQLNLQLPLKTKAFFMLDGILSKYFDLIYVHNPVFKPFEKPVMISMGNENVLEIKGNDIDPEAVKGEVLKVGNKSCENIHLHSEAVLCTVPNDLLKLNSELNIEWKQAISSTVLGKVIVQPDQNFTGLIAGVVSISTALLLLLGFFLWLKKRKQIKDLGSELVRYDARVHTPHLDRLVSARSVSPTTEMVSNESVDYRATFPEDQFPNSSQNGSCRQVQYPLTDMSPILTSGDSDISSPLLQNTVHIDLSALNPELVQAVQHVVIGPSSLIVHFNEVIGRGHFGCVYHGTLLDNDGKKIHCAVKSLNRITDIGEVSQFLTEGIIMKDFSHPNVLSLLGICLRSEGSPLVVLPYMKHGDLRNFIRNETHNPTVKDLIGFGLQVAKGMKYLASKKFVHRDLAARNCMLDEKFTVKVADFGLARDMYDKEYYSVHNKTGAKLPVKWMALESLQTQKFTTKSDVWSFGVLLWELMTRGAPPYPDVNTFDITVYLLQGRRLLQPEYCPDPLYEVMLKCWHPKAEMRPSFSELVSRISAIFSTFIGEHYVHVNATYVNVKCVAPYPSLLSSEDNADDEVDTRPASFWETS

IC50 (c-Met [1]) [µM]	SMILES	IC50 (c-Met [2]) [µM]
19.9	O[C@]12CCCCCC[C@@H]3CCN4CCC[C@](O)(CCCCCC[C@@H]5CCN(CCC1)[C@H]2O5)[C@@H]4O3 [ARG C, Araguspongine C]	
	C/C=C(/C=O)[C@@H](CC=O)CC(=O)OCCc1ccc(O)cc1 [OC, (−)-Oleocanthal]	5
